Measured values published in US8666671B2, “Method for determining drug-molecular combinations that modulate and enhance the therapeutic safety and efficacy of biological or pharmaceutical drugs” (Enhanced Pharmaceuticals, Inc., priority 2007, dated 2014).

System: rats
Experiment: In vivo response of rats (dP/dt, contractility of the heart) to Lopressor, dobutamine and Dob/Met
Source text: FIG. 2 presents empirical data of the in vivo response of rats to Lopressor® (the brand name for metoprolol used by Novartis Pharmaceuticals Corporation), dobutamine and the dobutamine/metoprolol specific combination ratio (Dob/Met);
The Lopressor® acts much like an inverse agonist or negative antagonist in that it produces a steep decrease in the animals' dP/dt, which is a measure of the contractility of the heart. Although in this experimental context metoprolol may be inhibiting the sympathetic tone of these animals due to the production of their endogenous catacholamines, it functions much like an inverse agonist or negative antagonist. The data is plotted as the dP/dt response versus the dosages of the drugs or combination (dobutamine with metoprolol, Dob/Met). The average beginning baseline response was about 7400 mmHg/sec. From this baseline, the Lopressor® decreased dP/dt to below 2000. For the agonist, dobutamine, the average response for the rats labeled 8-11 are plotted with the unfilled circles. At doses below about 50 micrograms/kg/min, the responses rise to a peak value of about 11000 mmHg/sec, but at further dosages these values decline to below 4000 mmHg/sec.
Examining the responses of metoprolol (Lopressor®) and dobutamine alone, one might think that in combination they would produce a more profound decline in the response to well below 2000 mmHg/sec. […] However, this method can predict these behaviors and is useful in determining other specific ratio combinations that produce a range of desirable responses in physiological systems.

Structure (SMILES)	dP/dt (contractility of the heart), decreased value (rats, in vivo, average beginning baseline about 7400 mmHg/sec, four individual rats)	dP/dt at further dosages (decline after peak) (rats 8-11, average response, doses above about 50 micrograms/kg/min)	dP/dt peak value (rats 8-11, average response, doses below about 50 micrograms/kg/min, baseline about 7400 mmHg/sec)
COCCc1ccc(OCC(O)CNC(C)C)cc1 (stereo not drawn) [Lopressor, metoprolol]	below 2000 mmHg/sec	–	–
CC(CCc1ccc(O)cc1)NCCc1ccc(O)c(O)c1 (stereo not drawn) [dobutamine]	–	below 4000 mmHg/sec	about 11000 mmHg/sec
